Where two headings read alike, the source gives them in different places.
Assays:
[1] = test system: bacterial and fungal strains; conditions: riboflavin with UV 365 nm, artificial surface; cited from earlier work
[2] = for fluorescence decay rate constant: 1 μM fluorescein, UV; for change in relative fluorescence intensity: 12 minutes of UV exposure
Description: In this example, fluorescein dye was used to detect the presence of free radicals, since interactions of oxidizing free radicals with fluorescein quench the fluorescence signal intensity. A fluorescein dye solution (4 μg/L) containing 0.4% (w/v) fructose and a fluorescein dye solution (4 μg/L) without fructose (control) were exposed to UV radiation at wavelength of 254 nm.
A batch-UV processing unit (Spectronics Spectrolinker XL-1500 UV Crosslinker, Westbury, N.Y.) was used for Examples 5-10. The apparatus consisted of 5 UV lamps (254 nm, 15 W, Spectronics Corporation, Westbury, N.Y.) that generated a UV intensity of approximately 20 mW/cm^2 at the surface of exposure mounted within a shielded box (46.4×15.9×31.8 cm). Fluorescence intensity measurement noise was minimized by allowing the lamps to warm up for at least 15 minutes prior to taking measurements.
The test fluorescein solution with approximately 1 μM fluorescein was prepared in deionized water (pH 6.3) or 100 mM buffer at pH 6. […] Specifically, treatments were carried out by adding a 10.0 ml solution into an uncovered glass petri dish and exposing it to UV radiation for various amounts of time (0-12 minutes) in the UV processing unit. The samples in the petri dish were stirred to achieve uniform exposure to UV light. Ambient room temperature (20-22° C.) was used for the treatments. To measure the fluorescence intensity of the solution, at each time interval, 100 μl of the sample was pipetted from the petri dish into a well of a 96-well plate optimized for fluorescence measurement. Fluorescence was measured in a Gemini XPS fluorescence micro-plate reader (Molecular Devices, Sunnyvale, Calif.) with excitation and emission wavelengths of 485 nm and 510 nm, respectively. All the fluorescence values were normalized using Eq. (1):
where I0=fluorescence intensity at time t=0 minutes and It=fluorescence intensity after ‘t’ minutes of UV exposure.

[3] = Solution absorbance at 254 nm; type: physicochemical
[4] = in the presence of fructose, model apple juice system; cited from earlier work
[5] = test system: E. coli BL-21; experiment: UV inactivation of E. coli BL-21 suspension, plate count; type: cell-based; conditions: 1% (w/v) gallic acid, UV 10 seconds, 109 CFU/mL in phosphate buffer, FIG. 6
Description: E. coli BL-21 was suspended in phosphate buffer at the level of 10^9 CFU/mL. Gallic acid was incorporated into bacterial suspension at the level of 1% (w/v). This suspension was exposed to UV light (intensity of 4 mJ/cm^2) for 10 seconds. The control experiment was performed in the exact same manner except for addition of gallic acid. After UV treatment, the cells were separated from the buffer through centrifugation and bacterial inactivation was measured using a plate count technique.

[6] = test system: E. coli 0157:H7; conditions: in lettuce; cited from earlier work

For Cc1cc2nc3c(=O)[nH]c(=O)nc-3n(C[C@H](O)[C@H](O)[C@H](O)CO)c2cc1C [Riboflavin], the “inactivation of bacterial and fungal strains” value [1] is listed as “effective in inactivating most of the bacterial and fungal strains”.
For O=C(CO)[C@@H](O)[C@H](O)[C@H](O)CO [fructose], the “fluorescence decay rate constant” value ([2]; 10 mM fructose) was 0.16 ± 0.01 min⁻¹, the “fluorescence decay rate constant” value ([2]; 20 mM fructose) was 0.27 ± 0.02 min⁻¹ and the “fluorescence decay rate constant” value ([2]; 100 mM fructose) was 0.91 ± 0.02 min⁻¹. For the same compound, the “fluorescence decay rate constant” value ([2]; 300 mM fructose) was 2.1 ± 0.06 min⁻¹, the “fluorescence decay rate constant” value ([2]; 500 mM fructose) was 2.4 ± 0.13 min⁻¹ and the fluorescence lost ([2]; 500 mM fructose, within 2 minutes of UV exposure, FIG. 10A) was “more than 90%”. The “average absorbance at 254 nm” value ([3]; 500 mM solution) was 0.12 and the “UV induced rate of degradation of patulin” value [4] was “increased”.
For c1ccoc1 [furan, reference compound], the “change in relative fluorescence intensity” value ([2]; 33 μM furan) was under 20%, the “change in relative fluorescence intensity” value ([2]; 66 μM furan) was under 20% and the “average absorbance at 254 nm” value ([3]; 132 μM) was “less than 0.001”.
For O=C(O)c1cc(O)c(O)c(O)c1 [gallic acid, 3,4,5-trihydroxybenzoic acid], the “microbial count after exposure to UV light” value [5] was “undetectable”.
For Acidified sodium chlorite, the “reduction of E. coli 0157:H7” value [6] is listed as at most 5 log.

Reference: US20160088853A1, “Ultraviolet Disinfection of Produce, Liquids and Surfaces” (DREXEL UNIVERSITY, priority 2013, published 2016)
